Results reported in patent US8975265B2, “Substituted imidazo[1,2-a]pyrimidines and —pyridines” (Bayer Intellectual Property GmbH, priority 2010, dated 2015).
Where two headings read alike, the source gives them in different places.

Legend:
[1] = test system: KPL-4 breast cancer cell line; test: Tumor cell proliferation assay (CellTiter-Glo, 72 h), KPL-4; type: cell-based; conditions: KPL4, 72h drug exposure
Outline: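 KPL-4 cells were treated with compound for 72 h at 37°C. Viability was measured as ATP by CellTiter-Glo luminescence, with a separate t=0 plate read after overnight attachment. A reference compound was run as standard.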

A2058 (melanoma) = test: Tumor cell proliferation assay, A2058; type: cell-based; conditions: Homo sapiens, 72h drug exposure, read-out: median IC50
Description: (§1) Biological Assay 4.0: Tumor Cell Proliferation Assays
(§2) Compounds were tested in a cell-based assay that measures the capacity of the compounds to inhibit tumour cell proliferation following a 72h drug exposure. Cell viability is determined using CellTiter-Glow® (CTG, Promega, cat# G7571/2/3). The CellTiter-Glo® Luminescent Cell Viability Assay is a homogeneous method to determine the number of viable cells in culture. Detection is based on using the luciferase reaction to measure the amount of ATP from viable cells. The amount of ATP in cells correlates with cell viability. Within minutes after a loss of membrane integrity, cells lose the ability to synthesize ATP, and endogenous ATPases destroy any remaining ATP; thus the levels of ATP fall precipitously.
(§3) Cells were plated at 3000-5000 cells/well (depending on the cell lines) in 90 μL growth medium on MTPs (Corning; #3603, black plate, clear flat bottom). For each cell line assayed, cells were plated onto a separate plate for determination of […] at t=0 hour and t=72 hour time points. Following overnight incubation at 37° C., chemiluminescence values for the t=0 samples were determined after adding 10 μl medium and 100 μl CTG solution according to manufacture protocol. […] Chemiluminescence values for the t=72 hour samples were determined. […]

A375 (melanoma) = test: Tumor cell proliferation assay, A375; type: cell-based; conditions: Homo sapiens, A-375, 72h drug exposure, read-out: median IC50
Description: as §1, §2, §3

H1993 (NSCLC) = test: Tumor cell proliferation assay, H1993; type: cell-based; conditions: Homo sapiens, NCI-H1993, 72h drug exposure, read-out: median IC50
Description: as §1, §2, §3

HMCB (melanoma) = test: Tumor cell proliferation assay, HMCB; type: cell-based; conditions: Homo sapiens, 72h drug exposure, read-out: median IC50
Description: as §1, §2, §3

HT-144 (melanoma) = test: Tumor cell proliferation assay, HT-144; type: cell-based; conditions: Homo sapiens, 72h drug exposure, read-out: median IC50
Description: as §1, §2, §3

Malme-3M (melanoma) = test: Tumor cell proliferation assay, Malme-3M; type: cell-based; conditions: Homo sapiens, 72h drug exposure, read-out: median IC50
Description: as §1, §2, §3

MeWo (melanoma) = test: Tumor cell proliferation assay, MeWo; type: cell-based; conditions: Homo sapiens, 72h drug exposure, read-out: median IC50
Description: as §1, §2, §3

SK-Mel-28 (melanoma) = test: Tumor cell proliferation assay, SK-Mel-28; type: cell-based; conditions: Homo sapiens, 72h drug exposure, read-out: median IC50
Description: as §1, §2, §3

U87 (brain) = test: Tumor cell proliferation assay, U87; type: cell-based; conditions: 72h drug exposure, read-out: median IC50
Description: as §1, §2, §3

UACC-257 (melanoma) = test: Tumor cell proliferation assay, UACC-257; type: cell-based; conditions: Homo sapiens, 72h drug exposure, read-out: median IC50
Description: as §1, §2, §3

UACC-62 (melanoma) = test: Tumor cell proliferation assay, UACC-62; type: cell-based; conditions: Homo sapiens, 72h drug exposure, read-out: median IC50
Description: as §1, §2, §3

[2] = target: His-tagged human recombinant kinase full-length Akt1 (Homo sapiens (Human), UniProt P31749); test: Akt1 kinase assay (TR-FRET); type: biochemical; conditions: 10 μM ATP; read-out: Akt1, median IC50
Sequence of His-tagged human recombinant kinase full-length Akt1 (P31749 whole entry): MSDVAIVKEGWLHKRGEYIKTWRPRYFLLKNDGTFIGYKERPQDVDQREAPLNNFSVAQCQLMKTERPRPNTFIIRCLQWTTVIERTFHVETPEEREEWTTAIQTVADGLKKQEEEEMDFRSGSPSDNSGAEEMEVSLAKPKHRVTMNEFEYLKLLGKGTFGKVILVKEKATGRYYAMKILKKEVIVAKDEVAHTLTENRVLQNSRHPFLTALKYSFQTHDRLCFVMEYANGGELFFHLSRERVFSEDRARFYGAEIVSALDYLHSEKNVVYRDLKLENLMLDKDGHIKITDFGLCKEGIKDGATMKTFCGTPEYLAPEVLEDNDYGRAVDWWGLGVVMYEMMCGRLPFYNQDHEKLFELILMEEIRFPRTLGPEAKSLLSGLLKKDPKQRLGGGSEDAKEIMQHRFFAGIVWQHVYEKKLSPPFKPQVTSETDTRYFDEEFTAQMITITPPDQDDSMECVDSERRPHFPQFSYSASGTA
Outline: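 Full-length His-tagged Akt1 (about 0.05 ng/μl final) preincubated 15 min at 22 °C with compound in 50 mM TRIS/HCl pH 7.5, 5 mM MgCl2, 1 mM DTT, 0.02% Triton X-100; biotinylated peptide substrate. Phosphopeptide detected by TR-FRET (Eu-chelate antibody to streptavidin-XL665) after 1 h at 22 °C.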

[3] = test system: p-AKT1/2/3-S473 in KPL4 breast tumour cell line; test: Cellular p-AKT1/2/3-S473 assay; type: cell-based; conditions: KPL4 breast tumour cell line, 2 hours treatment; read-out: pAKT-S743 median IC50
Outline: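 KPL4 cells (PIK3CA H1047R, HER2 0/E, hormone independent) were seeded at 60–80% confluency, cultured overnight, then exposed to compound for 2 h at 37 °C. pAKT-S473 and total AKT measured together by MSD Akt Duplex on 20 µg extract; pAKT expressed as % of total AKT, at least duplicate with independent repeats.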

[4] = test system: p-4E-BP1-T70 in KPL4 breast tumour cell line; test: Cellular p-4E-BP1-T70 assay; type: cell-based; conditions: 2 hours treatment, read-out: P4EBP1-T70 median IC50
Outline: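 KPL4 cells (PIK3CA H1047R, hormone independent) seeded at 60-80% confluency, incubated overnight, then exposed to compounds for 2 h at 37 °C. Lysates assayed for phospho-4E-BP1 T70 by AlphaScreen SureFire, in at least duplicate with independent repetition.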

[5] = test system: p-AKT S473 in PC3 human prostate tumours; test: In vivo xenograft mechanism of action study; set-up: species or system athymic nude mice; conditions: Mus musculus, po, PC3 tumours in nude mice, once 50 mg/kg p.o.
Text: In Vivo Xenograft Mechanism of Action Study
To this extent PC3 human prostate tumours were xenografted onto athymic nude mice. PC3 tumour cells were cultivated according to ATCC protocols in recommended media contained 10% FCS and harvested for transplantation in a subconfluent (70%) state. 3×10^6 tumour cells suspended in 50% Matrigel were subcutaneously implantated into the inguinal region of male mice. Tumours were allowed to grow to the predetermined size of 60-80 mm^2. When the tumours were approximately in size, the animals were randomized to treatment and control groups (groups size: 9 animals) and treatment was started. Animals were treated once with 50 mg/kg compound or vehicle per oral administration (p.o.) carried out via a gastric tube. Treatment of each animal was based on individual body weight. At 2, 5 and 24 hours post treatment 3 animals each were sacrificed and the PC3 tumours excised. Tumour samples of approximately 5×5×5 mm were lysed on ice in MSD lysis buffer in the presence of protease and phosphatase inhibitors using Tissue Lyzer (Qiagen, Germany). The levels of p-AKT S473 in extracts from tumour tissue were analysed in an ELISA based assay. This assay is based on the “Akt Duplex” of the MULTI-SPOT® Assay System (Fa. Meso Scale Discovery, Cat# N41100B-1) following manufacturers instructions. Each assay used 20 μg of protein extract and measured total AKT and p-AKT content simultaneously in one well. All measurements where at least done in duplicates and confirmed by independent repetition.
Values for P-AKT are expressed as percentage of P-AKT level compared to total-AKT content of the extracts. Vehicle treated tumours were analyzed to determine the basal level of P-AKT in this model and used as a normalization control to determine the % P-AKT relative to vehicle levels.

LnCAP = test: Tumor cell proliferation assay (CellTiter-Glo, 72 h), LnCAP; type: cell-based; conditions: Homo sapiens, 72h drug exposure
Description: as §2
Cells were plated at 3000-5000 cells/well (depending on the cell lines) in 90 μL growth medium on MTPs (Corning; #3603, black plate, clear flat bottom). For each cell line assayed, cells were plated onto a separate plate for determination of […] at t=0 hour and t=72 hour time points. Following overnight incubation at 37° C., chemiluminescence values for the t=0 samples were determined after adding 10 μl medium and 100 μl CTG solution according to manufacture protocol. Plates for the t=72 hour time points were treated with compounds diluted into growth medium at ten times final concentration added in 10 μL to the cell culture plate. Cells were then incubated for 72 hours at 37° C. Chemiluminescence values for the t=72 hour samples were determined. […] Experiments were controlled using a reference compound as standard.

MCF7 = test: Tumor cell proliferation assay (CellTiter-Glo, 72 h), MCF7; type: cell-based; conditions: Homo sapiens, 72h drug exposure
Outline: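 Cells seeded at 3000–5000/well and incubated overnight, then exposed to compound for 72 h at 37 °C. Viability measured by CellTiter-Glo ATP luminescence, with a separate plate read at t=0.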

[6] = 2 hours post treatment, read-out: P-AKT % relative to control at 2 hours
[7] = 5 hours post treatment, read-out: P-AKT % relative to control at 5 hours

Row | IC50 [1] [nM] | IC50 [2] [nM] | IC50 [3] [nM] | IC50 (LnCAP) [nM] | Compound | other results
1 | 900 | 24 | 35 | 1100 | COc1cc(C(N)=O)cn2c(-c3ccccc3)c(-c3ccc(C4(N)CCC4)cc3)nc12 [Example 1-13] | IC50 [4]: 1020 nM; response vs control in vivo at 50 mg/kg [5, 6]: 95.7%; response vs control in vivo at 50 mg/kg [5, 7]: 152%; IC50 (MCF7): 400 nM
2 | 800 | 142 | 30 | – | COc1ccn2c(-c3ccccc3)c(-c3ccc(C4(N)CCC4)cc3)nc2n1 [Example 2-0, 1-[4-(7-methoxy-3-phenyl-imidazo[1,2-a]pyrimidin-2-yl)-phenyl]-cyclobutylamine] | IC50 (A2058 (melanoma)): 2100 nM; IC50 (A375 (melanoma)): 8600 nM; IC50 (H1993 (NSCLC)): 500 nM; IC50 (HMCB (melanoma)): 8500 nM; IC50 (HT-144 (melanoma)): 2100 nM; IC50 (Malme-3M (melanoma)): 2400 nM; IC50 (MeWo (melanoma)): 5200 nM; IC50 (SK-Mel-28 (melanoma)): 3700 nM; IC50 (U87 (brain)): 10000 nM; IC50 (UACC-257 (melanoma)): 2000 nM; IC50 (UACC-62 (melanoma)): 8900 nM
3 | 2000 | 1660 | 537 | 1900 | CCc1ccn2c(-c3ccccc3)c(-c3ccc(C4(N)CCC4)cc3)nc2c1 [Example 2-21] | IC50 (MCF7): 2000 nM
4 | 1700 | 129 | 41 | 500 | NC1(c2ccc(-c3nc4cc(-c5cccnc5)ccn4c3-c3ccccc3)cc2)CCC1 [Example 2-110] | response vs control in vivo at 50 mg/kg [5, 6]: 10.2%; response vs control in vivo at 50 mg/kg [5, 7]: 16.4%; IC50 (MCF7): 700 nM
5 | 2000 | – | 244 | 1700 | Cn1cncc1-c1ccc2nc(-c3ccc(C4(N)CCC4)cc3)c(-c3ccccc3)n2c1 [Example 2-133] | –
6 | – | 691 | 132 | 1800 | Cn1cc(-c2ccc3nc(-c4ccc(C5(N)CCC5)cc4)c(-c4ccccc4)n3c2)cn1 [Example 2-134] | –
7 | 9500 | 93 | 901 | 1800 | CCOC(=O)c1ccc2nc(-c3ccc(C4(N)CCC4)cc3)c(-c3ccccc3)n2c1 [Example 2-143] | IC50 [4]: 1210 nM
8 | 300 | 12 | 5 | 400 | NC(=O)c1cc(Cl)c2nc(-c3ccc(C4(N)CCC4)cc3)c(-c3ccccc3)n2c1 [Example 6-1, 2-[4-(1-amino-cyclobutyl)-phenyl]-8-chloro-3-phenyl-imidazo[1,2-a]pyridine-6-carboxylic acid amide] | response vs control in vivo at 50 mg/kg [5, 6]: 7.7%; response vs control in vivo at 50 mg/kg [5, 7]: 7.5%; IC50 (MCF7): 300 nM

The next lines start with the molecule.

Row | Compound | IC50 [1] [nM] | IC50 [2] [nM] | IC50 [3] [nM] | IC50 (LnCAP) [nM] | other results
9 | NC1(c2ccc(-c3nc4nc(-c5ccccc5)ccn4c3-c3ccccc3)cc2)CCC1 [Example 1-3] | 1700 | – | – | – | IC50 (A2058 (melanoma)): 2200 nM; IC50 (A375 (melanoma)): 2200 nM; IC50 (H1993 (NSCLC)): 600 nM; IC50 (HMCB (melanoma)): 2600 nM; IC50 (HT-144 (melanoma)): 2300 nM; IC50 (Malme-3M (melanoma)): 1900 nM; IC50 (MeWo (melanoma)): 2000 nM; IC50 (SK-Mel-28 (melanoma)): 2000 nM; IC50 (U87 (brain)): 4900 nM; IC50 (UACC-257 (melanoma)): 1100 nM; IC50 (UACC-62 (melanoma)): 2200 nM
10 | NC1(c2ccc(-c3nc4cc(-c5cnc[nH]5)ccn4c3-c3ccccc3)cc2)CCC1 [Example 2-115] | 1800 | – | 192 | 1700 | –
11 | COC(=O)CCc1ccn2c(-c3ccccc3)c(-c3ccc(C4(N)CCC4)cc3)nc2c1 [Example 2-125] | 3100 | 3440 | 3070 | 9900 | –
12 | CCNC(=O)c1ccn2c(-c3ccccc3)c(-c3ccc(C4(N)CCC4)cc3)nc2c1 [Example 2-126] | 1600 | 601 | 125 | 1000 | –
13 | NC1(c2ccc(-c3nc4cc(C(=O)NO)ccn4c3-c3ccccc3)cc2)CCC1 [Example 2-127] | 5400 | 132 | 1680 | 1200 | IC50 [4]: 4870 nM
14 | NC1(c2ccc(-c3nc4ccc(-c5cccnc5O)cn4c3-c3ccccc3)cc2)CCC1 [Example 11-0, 3-{2-[4-(1-amino-cyclobutyl)-phenyl]-3-phenyl-imidazo[1,2-a]pyridin-6-yl}-pyridin-2-ol] | 2200 | 1510 | 588 | 2000 | –
15 | Cc1cc(-c2ccc3nc(-c4ccc(C5(N)CCC5)cc4)c(-c4ccccc4)n3c2)[nH]n1 [Example 12-0, 1-{4-[6(5-methyl-2H-pyrazol-3-yl)-3-phenyl-imidazo[1,2-a]pyridin-2-yl]-phenyl}-cyclobutylamine] | 1900 | 688 | 339 | 1700 | –
